Results as given in paper PMC9260974 (BMC Pharmacology & Toxicology, 2022).
“And” between values parts separate entries of the source, which are not always exact repeats. Identical values can stand only once. Like-named read-outs stand apart in the source and are kept apart here.

Assays:
clinical = details: human, plasma, po
Protocol: (§1) All eligible subjects were assigned according to the random table generated by SAS 9.4 and took the test (T) and reference(R) drugs respectively with 240 ml water after an overnight fast of at least 10 h (fasting study) or after the high-fat breakfast within half an hour before dosing (fed study). […] Subjects were forbidden to drink water within 1 h before and after taking the drug, and the lunch and dinner were provided at 4 h and 8 h respectively post-drug administration. No other food and beverage intake was permitted except the provided diets. […] 4 ml venous blood samples were collected before drug administration and at 1,2,3,4,5,6,7,8,9,10,11,12,13,24,36,48,72,96,144,168 h after administration. The samples were centrifuged at 1700gear per minute for 10 min at 4℃ to separate the plasma, which was divided into two aliquots (drug monitoring at least 800ul and backup) and stored at - 80℃until analysis.
(§2) The lower limit of quantification (LLOQ) was 0.500 ng/mL and the assay dynamic range was 0.500-100 ng/mL.
(§3) Under multiple reaction monitoring, LC–MS/MS system adopts positive ionization mode.
(§4) Data collection and analysis was performed with Analyst 1.6.3 software (Sciex, Canada) and Watson LIMS (Thermo, USA). Calibration curves were constructed using linear regression equation obtained by the weighted (W = 1/X2) least square method fitting for both analytes. Quantitation of quality control and clinical samples were also performed by the Analyst software using the same mathematical algorithm as that used in the calibration of standard curves.
(§5) For the purpose of bioequivalence analysis, the maximum observed concentration (Cmax), the area under the plasma concentration–time curve from time 0 to the last measured time point (AUC0-t), and the area under the plasma concentration–time curve from time 0 to infinity (AUC0-∞) were considered as primary PK parameters. The secondary PK parameters were the observed time to Cmax (Tmax) and the apparent terminal half-life (T1/2). Cmax and Tmax were the factually measured data and AUC0-t was calculated using the linear and logarithmic trapezoidal methods. AUC0-∞ was calculated according to the following formula: AUC0-∞ = AUC0-t + Clast/λz (Clast is the last measurable concentration and is the first order rate constant of terminal elimination determined from a linear regression line after logarithmic transformation at the end of concentration time curve. λz is the slope calculated by linear regression after logarithmic conversion at the end of the concentration–time curve). T1/2 was calculated to be ln2/λ.
(§6) Statistical analysis was performed by SAS 9.4. Demographic characteristics, safety parameters and pharmacokinetic data were summarized using descriptive statistics, the results were presented as the mean ± SD and the differences between groups were determined by two one-sided tests. […] AUC and Cmax were logarithmically transformed and analyzed by linear mixed effect model. Sequence, period and formulation were fixed effects, and subject within sequence was included as a random effect. Analysis of variance (ANOVA) of cross-over design was performed on the log-transformed variables. […] Bioequivalence was assessed separately in both the fasting and fed groups.

[1] = human, in vivo
Protocol: as §1, §2, §3, §4, §5, §6

blood pressure = details: after oral administration; cited from earlier work
[2] = lisinopril; cited from earlier work
[3] = Single-dose two-period crossover bioequivalence study, fed (high-fat breakfast): plasma pharmacokinetics of lisinopril and amlodipine (LC-MS/MS, NCA); details: for concentration at 3 h / concentration at 10 h / concentration at 6 h / concentration at 5 h / concentration at 7 h / concentration at 8 h / concentration at 11 h / concentration at 12 h / concentration at 0 h / concentration at 1 h / concentration at 2 h / concentration at 4 h / concentration at 9 h / concentration at 13 h / concentration at 24 h / concentration at 36 h / concentration at 48 h / concentration at 72 h / concentration at 96 h / concentration at 144 h / concentration at 168 h: human, po, Plasma concentration of lisinopril; for concentration at 3 h: nominal time 3 h; for concentration at 3 h / concentration at 10 h / concentration at 6 h / concentration at 5 h / concentration at 7 h / concentration at 8 h / concentration at 11 h / concentration at 12 h / concentration at 0 h / concentration at 1 h / concentration at 2 h / concentration at 4 h / concentration at 9 h / concentration at 13 h / concentration at 24 h / concentration at 36 h / concentration at 48 h / concentration at 72 h / concentration at 96 h / concentration at 144 h / concentration at 168 h / Plasma concentration of lisinopril: reference (R) tablets; for concentration at 10 h: nominal time 10 h; for concentration at 6 h: nominal time 6 h; for concentration at 5 h: nominal time 5 h; for concentration at 7 h: nominal time 7 h; for concentration at 11 h: nominal time 11 h; for concentration at 12 h: nominal time 12 h; for concentration at 0 h: nominal time 0 h; for concentration at 2 h: nominal time 2 h; for concentration at 4 h: nominal time 4 h; for concentration at 9 h: nominal time 9 h; for concentration at 13 h: nominal time 13 h; for concentration at 24 h: nominal time 24 h; for concentration at 36 h: nominal time 36 h; for concentration at 48 h: nominal time 48 h; for concentration at 72 h: nominal time 72 h; for concentration at 96 h: nominal time 96 h; for Plasma concentration of lisinopril: oral, listed as LSN;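 as to Plasma concentration of lisinopril: single tablet dose 10 mg/5 mg fixed combination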
Protocol: as §1, §2, §3, §4, §5, §6

[4] = plasma, Max, maximum among subjects
[5] = plasma, Mean, mean of 37 subjects
[6] = plasma, Min, minimum among subjects
[7] = lisinopril, intra-subject coefficient of variation

SMILES: NCCCC[C@H](N[C@@H](CCc1ccccc1)C(=O)O)C(=O)N1CCC[C@H]1C(=O)O [lisinopril]
- concentration at 0 h (clinical): 0.517 ng/mL
- Intra-CV (%) of AUC0-t [1]: 19.3%
- Intra-CV (%) of AUC0-∞ [1]: 17.0%
- Intra-CV (%) of Cmax [1]: 24.3%
- Time to appearance of antihypertensive effect (blood pressure): ≤ 1 h
- Time to peak antihypertensive effect (blood pressure): about 6 h
- Decrease of AUC0-24 by concomitant EGCG-concentrated green tea extract [2]: 69%
- Decrease of AUC0-∞ by concomitant EGCG-concentrated green tea extract [2]: 67%
- Decrease of Cmax by concomitant EGCG-concentrated green tea extract [2]: 71%
- Mean fecal recovery of intact drug [2]: 69%
- concentration at 3 h ([3]; in vivo, Max, maximum among subjects): 22.4 ng/mL
- concentration at 10 h ([3]; in vivo, Mean, mean of 36 subjects): 12.9 ng/mL
- concentration at 6 h ([3]; in vivo, Mean, mean of 37 subjects): 13.3 ng/mL
- concentration at 3 h ([3]; in vivo, individual subjects): 22.4 ng/mL
- concentration at 5 h ([3]; in vivo, individual subjects): 12.9 ng/mL
- concentration at 6 h ([3]; in vivo, individual subjects): 22.4 ng/mL
- concentration at 7 h ([3]; in vivo, individual subjects): 22.4 ng/mL
- concentration at 8 h ([3]; in vivo, individual subjects, nominal time 8 h): 22.4 ng/mL
- concentration at 11 h ([3]; in vivo, individual subjects): 12.9 ng/mL
- concentration at 12 h ([3]; in vivo, individual subjects): 13.3 ng/mL
- concentration at 0 h [3, 4]: 0.532 ng/mL
- concentration at 1 h ([3]; plasma, Max, maximum among subjects, nominal time 1 h): 3.22 ng/mL
- concentration at 2 h [3, 4]: 12 ng/mL
- concentration at 4 h [3, 4]: 29.2 ng/mL
- concentration at 5 h [3, 4]: 29.7 ng/mL
- concentration at 6 h [3, 4]: 29.5 ng/mL
- concentration at 7 h [3, 4]: 29.8 ng/mL
- concentration at 8 h ([3]; plasma, Max, maximum among subjects, nominal time 8 h): 27.4 ng/mL
- concentration at 9 h [3, 4]: 27.1 ng/mL
- concentration at 10 h [3, 4]: 24.1 ng/mL
- concentration at 11 h [3, 4]: 21.9 ng/mL
- concentration at 12 h [3, 4]: 20.8 ng/mL
- concentration at 13 h [3, 4]: 19 ng/mL
- concentration at 24 h [3, 4]: 8.44 ng/mL
- concentration at 36 h [3, 4]: 3.64 ng/mL
- concentration at 48 h [3, 4]: 3.23 ng/mL
- concentration at 72 h [3, 4]: 2.87 ng/mL
- concentration at 96 h [3, 4]: 2.72 ng/mL
- concentration at 144 h ([3]; plasma, Max, maximum among subjects, nominal time 144 h): 2.07 ng/mL
- concentration at 168 h ([3]; plasma, Max, maximum among subjects, nominal time 168 h): 1.66 ng/mL
- concentration at 0 h [3, 5]: 0.0284 ng/mL
- concentration at 1 h ([3]; plasma, Mean, mean of 37 subjects, nominal time 1 h): 0.795 ng/mL
- concentration at 2 h [3, 5]: 2.85 ng/mL
- concentration at 3 h [3, 5]: 5.92 ng/mL
- concentration at 4 h [3, 5]: 9.3 ng/mL
- concentration at 5 h [3, 5]: 11.9 ng/mL
- concentration at 7 h [3, 5]: 13.9 ng/mL
- concentration at 8 h ([3]; plasma, Mean, mean of 37 subjects, nominal time 8 h): 14 ng/mL
- concentration at 9 h [3, 5]: 13.5 ng/mL
- concentration at 11 h [3, 5]: 12 ng/mL
- concentration at 12 h [3, 5]: 10.8 ng/mL
- concentration at 13 h [3, 5]: 9.81 ng/mL
- concentration at 24 h [3, 5]: 4.32 ng/mL
- concentration at 36 h [3, 5]: 2.32 ng/mL
- concentration at 48 h [3, 5]: 1.88 ng/mL
- concentration at 72 h [3, 5]: 1.46 ng/mL
- concentration at 96 h [3, 5]: 1.21 ng/mL
- concentration at 144 h ([3]; plasma, Mean, mean of 37 subjects, nominal time 144 h): 0.741 ng/mL
- concentration at 168 h ([3]; plasma, Mean, mean of 37 subjects, nominal time 168 h): 0.639 ng/mL
- concentration at 0 h [3, 6]: 0 ng/mL
- concentration at 1 h ([3]; plasma, Min, minimum among subjects, nominal time 1 h): 0 ng/mL
- concentration at 2 h [3, 6]: 0 ng/mL
- concentration at 3 h [3, 6]: 0.89 ng/mL
- concentration at 4 h [3, 6]: 1.37 ng/mL
- concentration at 5 h [3, 6]: 2.12 ng/mL
- concentration at 6 h [3, 6]: 3.02 ng/mL
- concentration at 7 h [3, 6]: 3.34 ng/mL
- concentration at 8 h ([3]; plasma, Min, minimum among subjects, nominal time 8 h): 3.75 ng/mL
- concentration at 9 h [3, 6]: 4.2 ng/mL
- concentration at 10 h [3, 6]: 4.09 ng/mL
- concentration at 11 h [3, 6]: 3.97 ng/mL
- concentration at 12 h [3, 6]: 3.57 ng/mL
- concentration at 13 h [3, 6]: 3.73 ng/mL
- concentration at 24 h [3, 6]: 2.31 ng/mL
- concentration at 36 h [3, 6]: 1.27 ng/mL
- concentration at 48 h [3, 6]: 0.976 ng/mL
- concentration at 72 h [3, 6]: 0.736 ng/mL
- concentration at 96 h [3, 6]: 0.564 ng/mL
- concentration at 144 h ([3]; plasma, Min, minimum among subjects, nominal time 144 h): 0 ng/mL
- concentration at 168 h ([3]; plasma, Min, minimum among subjects, nominal time 168 h): 0 ng/mL
- Plasma concentration of lisinopril ([3]; individual subjects, nominal time 1 h): 0.899 ng/mL and 0.567 ng/mL and 0.719 ng/mL and 1.48 ng/mL and 3.22 ng/mL and 1.13 ng/mL and 0.941 ng/mL and 3.14 ng/mL and 0.842 ng/mL and 1.25 ng/mL and 0.826 ng/mL and 0.793 ng/mL and 1.55 ng/mL and 0.556 ng/mL and 0.744 ng/mL and 1.26 ng/mL and 1.43 ng/mL and 0.747 ng/mL and 1.81 ng/mL and 0.710 ng/mL and 0.799 ng/mL and 0.831 ng/mL and 2.32 ng/mL
- Plasma concentration of lisinopril ([3]; individual subjects, nominal time 8 h): 13.3 ng/mL
- Plasma concentration of lisinopril ([3]; individual subjects, nominal time 144 h): 1.05 ng/mL and 0.866 ng/mL and 2.07 ng/mL and 0.911 ng/mL and 0.569 ng/mL and 0.775 ng/mL and 0.691 ng/mL and 0.777 ng/mL and 0.834 ng/mL and 0.868 ng/mL and 0.514 ng/mL and 0.885 ng/mL and 0.919 ng/mL and 1.07 ng/mL and 1.00 ng/mL and 1.32 ng/mL and 0.715 ng/mL and 0.954 ng/mL and 1.83 ng/mL and 0.661 ng/mL and 0.869 ng/mL and 0.760 ng/mL and 0.582 ng/mL and 0.969 ng/mL and 0.992 ng/mL and 0.736 ng/mL and 0.576 ng/mL and 1.56 ng/mL and 1.10 ng/mL
- Plasma concentration of lisinopril ([3]; individual subjects, nominal time 168 h): 0.904 ng/mL and 0.689 ng/mL and 1.66 ng/mL and 0.780 ng/mL and 0.534 ng/mL and 0.708 ng/mL and 0.504 ng/mL and 0.629 ng/mL and 0.750 ng/mL and 0.711 ng/mL and 0.787 ng/mL and 0.832 ng/mL and 0.987 ng/mL and 0.890 ng/mL and 1.20 ng/mL and 0.696 ng/mL and 0.773 ng/mL and 0.528 ng/mL and 1.38 ng/mL and 0.522 ng/mL and 0.761 ng/mL and 0.659 ng/mL and 0.502 ng/mL and 0.849 ng/mL and 0.785 ng/mL and 0.620 ng/mL and 0.572 ng/mL and 1.04 ng/mL
- Intra-CV (%) of AUC0-t [3, 7]: 13.3%
- Intra-CV (%) of AUC0-∞ [3, 7]: 12.9%
- Intra-CV (%) of Cmax [3, 7]: 22.4%
